# Laboratory results taken from ChEMBL document CHEMBL1201862, “PubChem BioAssay data set” (2004).
# Values joined by “and” are separate entries in the source; they are usually repeats but may differ in a detail not shown here. Equal values may be shown once.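 All cell lines were grown in 96-well plates and treated with compound for 48 hours. The concentration for 50% growth inhibition is given as GI50.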 Active and inactive are the calls of the source. No stated cut-off is given here; in the data, active = GI50 up to about 1.1 µM and inactive = higher.
# Columns and labels:
# Assay in all cases: NCI-60 cell line screen, 48 h
# [1] = system: CAKI-1
# [2] = system: EKVX
# [3] = system: HCT-15
# [4] = system: HOP-62
# [5] = system: HOP-92
# [6] = system: HT-29
# [7] = system: NCI-H23
# [8] = system: SF-268
# [9] = system: SF-539
# [10] = system: SK-OV-3
# [11] = system: U-251
# [12] = system: UACC-257
SMILES,GI50 [1],GI50 [2],GI50 [3] [µM],GI50 [4],GI50 [5],GI50 [6],GI50 [7],GI50 [8],GI50 [9],GI50 [10],GI50 [11],GI50 [12]
S=c1sc2c(Cl)ncnc2n1-c1ccccc1,4.88 µM (inactive),17.7 µM (inactive),15.1,15.6 µM (inactive),19.7 µM (inactive),11.4 µM (inactive),17.4 µM (inactive),5.05 µM (inactive),16.3 µM (inactive),20 µM (inactive),16 µM (inactive),15.5 µM (inactive)
COc1cc(-c2cc(=O)c3cc(C)c(C)c(C(=O)O)c3o2)cc(OC)c1OC,,> 100 µM (inactive),> 100,> 100 µM (inactive),> 100 µM (inactive),> 100 µM (inactive),> 100 µM (inactive),> 100 µM (inactive),> 100 µM (inactive),> 100 µM (inactive),> 100 µM (inactive),> 100 µM (inactive)
CC1C(c2ccccc2)=CCON1c1ccccc1 (stereo unspecified),> 100 µM (inactive),> 100 µM (inactive),> 100,> 100 µM (inactive),,> 100 µM (inactive),> 100 µM (inactive),> 100 µM (inactive),> 100 µM (inactive),> 100 µM (inactive),> 100 µM (inactive),> 100 µM (inactive)
CC(=O)O[C@H]1CCC2[C@@H]3CCC4=C(O)c5nocc5C[C@]4(C)C3CC[C@@]21C (stereo partly specified),> 100 µM (inactive),> 100 µM (inactive),> 100,> 100 µM (inactive),> 100 µM (inactive),> 100 µM (inactive),> 100 µM (inactive),> 100 µM (inactive),> 100 µM (inactive),> 100 µM (inactive),> 100 µM (inactive),> 100 µM (inactive)
NC(=O)/C(=N\NC(=O)C[n+]1ccccc1)C1NC(=O)NC1=O (stereo unspecified),> 100 µM (inactive),> 100 µM (inactive),> 100,> 100 µM (inactive),> 100 µM (inactive),> 100 µM (inactive),> 100 µM (inactive),> 100 µM (inactive),> 100 µM (inactive),> 100 µM (inactive),,> 100 µM (inactive)
CCCC(=O)c1c(NOC2OC(COC(C)=O)C(OC(C)=O)C(OC(C)=O)C2OC(C)=O)nc(OC)n(C)c1=O (stereo unspecified),,> 100 µM (inactive),> 100,> 100 µM (inactive),,> 100 µM (inactive),> 100 µM (inactive),> 100 µM (inactive),> 100 µM (inactive),,> 100 µM (inactive),
CCCCN(CC)CC(C(C)=O)c1c(O)c2ccccc2oc1=O (stereo unspecified),> 100 µM (inactive),> 100 µM (inactive),> 100,> 100 µM (inactive),,> 100 µM (inactive),15.4 µM (inactive),> 100 µM (inactive),> 100 µM (inactive),> 100 µM (inactive),> 100 µM (inactive),> 100 µM (inactive)
O=c1[nH]cnc2c1nnn2C1C=C(CO)C(O)C1O (stereo unspecified),> 100 µM (inactive),> 100 µM (inactive),> 100,> 100 µM (inactive),> 100 µM (inactive),> 100 µM (inactive),> 100 µM (inactive),74.1 µM (inactive),> 100 µM (inactive),> 100 µM (inactive),> 100 µM (inactive),> 100 µM (inactive)
Cc1ccc(S(=O)(=O)OCC23CCC(C4CC42)C2CC23)cc1 (stereo unspecified),> 100 µM (inactive),,> 100,52.7 µM (inactive),29.2 µM (inactive),43.8 µM (inactive),48.8 µM (inactive),67.9 µM (inactive),,> 100 µM (inactive),> 100 µM (inactive),7.01 µM (inactive)
C[C@]12CCC3[C@@H](CC[C@@H]4c5nonc5CC[C@]34C)C1CC[C@@H]2O (stereo partly specified),19.8 µM (inactive),23.8 µM (inactive),28.4,28.4 µM (inactive),23 µM (inactive),32.7 µM (inactive),32.1 µM (inactive),29.6 µM (inactive),17.4 µM (inactive),30.5 µM (inactive),19.9 µM (inactive),19.8 µM (inactive)
COc1cc(/C=C2\NC(=S)C3Cc4c(OC)c(C)c(OC)c(OC)c4C2N3C)c(OC)c(C)c1OC (stereo unspecified),58.1 µM (inactive),36.8 µM (inactive),,> 100 µM (inactive),9.38 µM (inactive),61.4 µM (inactive),86.1 µM (inactive),95.3 µM (inactive),> 100 µM (inactive),> 100 µM (inactive),45.1 µM (inactive),22.2 µM (inactive)
Cc1ccc(NCC(=O)N2CC(=O)Nc3ccccc32)c(C)c1,> 100 µM (inactive),> 100 µM (inactive),> 100,> 100 µM (inactive),> 100 µM (inactive),> 100 µM (inactive),> 100 µM (inactive),> 100 µM (inactive),> 100 µM (inactive),> 100 µM (inactive),> 100 µM (inactive),> 100 µM (inactive)
CCOC(=O)C(C(=O)c1ccccc1-c1ccccc1C(=O)O)=P(c1ccccc1)(c1ccccc1)c1ccccc1,,32.9 µM (inactive),25.7,18.8 µM (inactive),,25 µM (inactive),20 µM (inactive),41.6 µM (inactive),18.9 µM (inactive),,18.3 µM (inactive),25.5 µM (inactive)
CCN(CC)CC(C)(C)C(=O)/C=C/c1cccc(/C=C/C(=O)C(C)(C)CN(CC)CC)c1,0.286 µM (active),1.16 µM (inactive),0.461,2.31 µM (inactive),0.504 µM (active),0.366 µM (active),1.3 µM (inactive),0.429 µM (active),1.05 µM (active),1.45 µM (inactive),0.219 µM (active),1.22 µM (inactive)
Cc1ccccc1/N=N/c1c(-c2ccccc2)nn(C(=O)CC(=O)Nc2cccc(Cl)c2)c1-c1ccccc1,31.6 µM (inactive),28.4 µM (inactive),16.9,> 31.6 µM (inactive),26.3 µM (inactive),15.3 µM (inactive),20.1 µM (inactive),24 µM (inactive),24.2 µM (inactive),27.7 µM (inactive),13.7 µM (inactive),0.247 µM (active)
Cc1cc2c(c(C#N)c1C)NC(=O)CCC2=O,> 100 µM (inactive),> 100 µM (inactive),> 100,> 100 µM (inactive),,> 100 µM (inactive),> 100 µM (inactive),,> 100 µM (inactive),,> 100 µM (inactive),> 100 µM (inactive)
C=CC1(C(=O)O)CCC(C(C)(C)C)CC1 (stereo unspecified),> 100 µM (inactive),> 100 µM (inactive),> 100,> 100 µM (inactive),> 100 µM (inactive),> 100 µM (inactive),> 100 µM (inactive),> 100 µM (inactive),> 100 µM (inactive),> 100 µM (inactive),> 100 µM (inactive),> 100 µM (inactive)
COC(=O)C(CCCCCCCC(C(=O)OC)C1=Nc2nnc(N)n2C1=O)C1=Nc2nnc(N)n2C1=O (stereo unspecified),11.2 µM (inactive),> 100 µM (inactive),> 100,> 100 µM (inactive),65.8 µM (inactive),> 100 µM (inactive),> 100 µM (inactive),> 100 µM (inactive),84.3 µM (inactive),> 100 µM (inactive),> 100 µM (inactive),> 100 µM (inactive)
COc1cc2c(Cc3cc(OCc4ccccc4)ccc3N)nccc2c(OC)c1OC,,> 10 µM (inactive),> 10,> 10 µM (inactive),> 10 µM (inactive),> 10 µM (inactive),> 10 µM (inactive),> 10 µM (inactive),> 10 µM (inactive),> 10 µM (inactive),> 10 µM (inactive),> 10 µM (inactive)
C[C@@H]1C[C@@H]2C(=O)N(c3ccccc3)C(=O)[C@@H]2c2[nH]c3ccc(Br)cc3c21,27.4 µM (inactive),36.9 µM (inactive),34.3,23.3 µM (inactive),27.6 µM (inactive),,89.7 µM (inactive),41.5 µM (inactive),65.8 µM (inactive),22.3 µM (inactive),13.5 µM (inactive),> 100 µM (inactive)
COc1ccccc1/C=N/C12CC3CC(CC(C3)C1)C2,> 100 µM (inactive),> 100 µM (inactive),91.8,> 100 µM (inactive),> 100 µM (inactive),> 100 µM (inactive),> 100 µM (inactive),> 100 µM (inactive),> 100 µM (inactive),> 100 µM (inactive),> 100 µM (inactive),> 100 µM (inactive)
C1=Cc2nc1c(-c1ccncc1)c1ccc([n-]1)c(-c1ccncc1)c1nc(c(-c3ccncc3)c3ccc([n-]3)c2-c2ccncc2)C=C1.[Zn+2],> 100 µM (inactive),> 100 µM (inactive),> 100,> 100 µM (inactive),> 100 µM (inactive),> 100 µM (inactive),> 100 µM (inactive),> 100 µM (inactive),> 100 µM (inactive),> 100 µM (inactive),> 100 µM (inactive),> 100 µM (inactive)
C[C@@H]1CC[C@@]2(C)OC(c3ccccc3)[C@H](CO)N2C1=O (stereo partly specified),> 100 µM (inactive),> 100 µM (inactive),> 100,> 100 µM (inactive),> 100 µM (inactive),> 100 µM (inactive),> 100 µM (inactive),> 100 µM (inactive),> 100 µM (inactive),,> 100 µM (inactive),> 100 µM (inactive)
O=c1ncccn1[C@@H]1O[C@H](CO)[C@@H](O)[C@@H]1F,> 100 µM (inactive),> 100 µM (inactive),,> 68.5 µM (inactive),> 100 µM (inactive),> 100 µM (inactive) and > 61.9 µM (inactive),> 100 µM (inactive),> 100 µM (inactive),,> 100 µM (inactive),> 100 µM (inactive),> 100 µM (inactive)
